Data reported in patent US12448399B2, “Cereblon-based KRAS degrading PROTACs and uses related thereto” (Arvinas Operations, Inc., priority 2023, dated 2025).

Biological target: T1, KRas-G12D (Homo sapiens, UniProt P01116, G12D)
T1 construct: insert the HiBiT tag onto the N-terminus of one or more of the endogenous KRas alleles; host or cells: AsPC-1 HiBiT-KRasG12D knock-in clone (one tagged allele, two untagged KRasG12D alleles)
Assay: HiBiT Degradation Assay (G12D), AsPC-1 HiBiT-KRasG12D cells, 24 hr
Assay type: cell-based
Settings: for Dmax: ASPC1, AsPC-1 cells, maximum degradation observed; for DC50: AsPC-1 cells
Summary of the method: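 Degradation was read after 24 hr compound exposure (0.5% DMSO, 37° C) by Nano-Glo HiBiT lytic luminescence in AsPC-1 cells carrying a HiBiT tag on one of three KRasG12D alleles. Signal relative to DMSO gave DC50 and Dmax by 4-parameter fit; alamar blue fluorescence monitored cytotoxicity.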

T1 sequence (P01116 1-188 isoform P01116-2 G12D): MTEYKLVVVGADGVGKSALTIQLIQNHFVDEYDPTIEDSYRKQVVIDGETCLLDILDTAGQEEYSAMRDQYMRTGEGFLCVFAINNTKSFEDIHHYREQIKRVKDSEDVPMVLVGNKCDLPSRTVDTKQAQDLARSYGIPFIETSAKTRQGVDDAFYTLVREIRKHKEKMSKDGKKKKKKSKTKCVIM

| SMILES | Dmax [%] | DC50 [µM] |
| --- | --- | --- |
| C#Cc1c(F)ccc2cc(O)cc(-c3ncc4c(N5CC6CCC(C5)N6)nc(OCCN5CCC(CN6CCC(CC7CCN(c8ccc9c(c8)n(C(C)C)c(=O)n9C8CCC(=O)NC8=O)CC7)CC6)CC5)nc4c3F)c12 (stereo not drawn) [Compound 80, 3-{5-[4-({1-[(1-{2-[(4-{3,8-diazabicyclo[3.2.1]octan-3-yl}-7-(8-ethynyl-7-fluoro-3-hydroxynaphthalen-1-yl)-8-fluoropyrido[4,3-d]pyrimidin-2-yl)oxy]ethyl}piperidin-4-yl)methyl]piperidin-4-yl}methyl)piperidin-1-yl]-2-oxo-3-(propan-2-yl)-2,3-dihydro-1H-1,3-benzodiazol-1-yl}piperidine-2,6-dione] | > 70 | < 5.1 |
| C#Cc1c(F)ccc2cc(O)cc(-c3ncc4c(N5CC6CCC(C5)N6)nc(OCCN5CCC(CN6CCC(CC7CCN(c8ccc9c(c8Cl)CN(C8CCC(=O)NC8=O)C9=O)CC7)CC6)CC5)nc4c3F)c12 (stereo not drawn) [Compound 81, 3-{4-chloro-5-[4-({1-[(1-{2-[(4-{3,8-diazabicyclo[3.2.1]octan-3-yl}-7-(8-ethynyl-7-fluoro-3-hydroxynaphthalen-1-yl)-8-fluoropyrido[4,3-d]pyrimidin-2-yl)oxy]ethyl}piperidin-4-yl)methyl]piperidin-4-yl}methyl)piperidin-1-yl]-1-oxo-2,3-dihydro-1H-isoindol-2-yl}piperidine-2,6-dione] | > 70 | < 5.1 |
| C#Cc1c(F)ccc2cc(O)cc(-c3ncc4c(N5CC6CCC(C5)N6)nc(OCCN5CCC(CN6CCC(CC7CCN(c8ccc9c(c8)n(C)c(=O)n9C8CCC(=O)NC8=O)CC7)CC6)CC5)nc4c3F)c12 (stereo not drawn) [Compound 82, 3-{5-[4-({1-[(1-{2-[(4-{3,8-diazabicyclo[3.2.1]octan-3-yl}-7-(8-ethynyl-7-fluoro-3-hydroxynaphthalen-1-yl)-8-fluoropyrido[4,3-d]pyrimidin-2-yl)oxy]ethyl}piperidin-4-yl)methyl]piperidin-4-yl}methyl)piperidin-1-yl]-3-methyl-2-oxo-2,3-dihydro-1H-1,3-benzodiazol-1-yl}piperidine-2,6-dione] | > 70 | < 5.1 |
| C#Cc1c(F)ccc2cc(O)cc(-c3ncc4c(N5CC6CCC(C5)N6)nc(OCCN5CCC6(CC5)CCN(CC5CCN(c7cccc8c7n(C)c(=O)n8C7CCC(=O)NC7=O)CC5)CC6)nc4c3F)c12 (stereo not drawn) [Compound 83, 3-(4-{4-[(9-{2-[(4-{3,8-diazabicyclo[3.2.1]octan-3-yl}-7-(8-ethynyl-7-fluoro-3-hydroxynaphthalen-1-yl)-8-fluoropyrido[4,3-d]pyrimidin-2-yl)oxy]ethyl}-3,9-diazaspiro[5.5]undecan-3-yl)methyl]piperidin-1-yl}-3-methyl-2-oxo-2,3-dihydro-1H-1,3-benzodiazol-1-yl)piperidine-2,6-dione] | > 70 | < 5.1 |
| C#Cc1c(F)ccc2cc(O)cc(-c3ncc4c(N5CC6CCC(C5)N6)nc(OC[C@]56CCCN5[C@H](CN5CCN(CC7CCN(c8ccc9c(c8)CN(C8CCC(=O)NC8=O)C9=O)CC7)CC5)CC6)nc4c3F)c12 (stereo partly drawn) [Compound 84, 3-[5-[4-[[4-[[(3S,8R)-8-[[4-(3,8-diazabicyclo[3.2.1]octan-3-yl)-7-(8-ethynyl-7-fluoro-3-hydroxy-1-naphthyl)-8-fluoro-pyrido[4,3-d]pyrimidin-2-yl]oxymethyl]-1,2,3,5,6,7-hexahydropyrrolizin-3-yl]methyl]piperazin-1-yl]methyl]-1-piperidyl]-1-oxo-isoindolin-2-yl]piperidine-2,6-dione] | > 70 | < 5.1 |
| CCc1c(F)ccc2cc(O)cc(-c3ncc4c(N5CC6CCC(C5)N6)nc(OC[C@@H]5C[C@@H](OC6CCN(CC7CCN(c8ccc9c(c8)CN(C8CCC(=O)NC8=O)C9=O)CC7)CC6)CN5C)nc4c3F)c12 (stereo partly drawn) [Compound 85, 3-(5-{4-[(4-{[(3R,5S)-5-{[(4-{3,8-diazabicyclo[3.2.1]octan-3-yl}-7-(8-ethyl-7-fluoro-3-hydroxynaphthalen-1-yl)-8-fluoropyrido[4,3-d]pyrimidin-2-yl)oxy]methyl}-1-methylpyrrolidin-3-yl]oxy}piperidin-1-yl)methyl]piperidin-1-yl}-1-oxo-2,3-dihydro-1H-isoindol-2-yl)piperidine-2,6-dione] | > 70 | < 5.1 |
| CCc1c(F)ccc2cc(O)cc(-c3ncc4c(N5CC6CCC(C5)N6)nc(OCCN5CCC(CC6CCN(CC7CCN(c8ccc9c(c8)CN(C8CCC(=O)NC8=O)C9=O)CC7)CC6)CC5)nc4c3F)c12 (stereo not drawn) [Compound 86, 3-{5-[4-({4-[(1-{2-[(4-{3,8-diazabicyclo[3.2.1]octan-3-yl}-7-(8-ethyl-7-fluoro-3-hydroxynaphthalen-1-yl)-8-fluoropyrido[4,3-d]pyrimidin-2-yl)oxy]ethyl}piperidin-4-yl)methyl]piperidin-1-yl}methyl)piperidin-1-yl]-1-oxo-2,3-dihydro-1H-isoindol-2-yl}piperidine-2,6-dione] | > 70 | < 5.1 |
| C#Cc1c(F)ccc2cc(O)cc(-c3ncc4c(N5CC6CCC(C5)N6)nc(OCCN5CCC(CN6CCC(CC7CCN(c8ccc9c(c8)CN(C8CCC(=O)NC8=O)C9=O)CC7)CC6)CC5)nc4c3F)c12 (stereo not drawn) [Compound 87, 3-[5-[4-[[1-[[1-[2-[4-(3,8-diazabicyclo[3.2.1]octan-3-yl)-7-(8-ethynyl-7-fluoro-3-hydroxy-1-naphthyl)-8-fluoropyrido[4,3-d]pyrimidin-2-yl]oxyethyl]-4-piperidyl]methyl]-4-piperidyl]methyl]-1-piperidyl]-1-oxo-isoindolin-2-yl]piperidine-2,6-dione] | > 70 | < 5.1 |
| C#Cc1c(F)ccc2cc(O)cc(-c3ncc4c(N5CC6CCC(C5)N6)nc(OCCN5CCC(CN6CCC(CC7CCN(c8ccc9c(c8F)CN(C8CCC(=O)NC8=O)C9=O)CC7)CC6)CC5)nc4c3F)c12 (stereo not drawn) [Compound 88, 3-{5-[4-({1-[(1-{2-[(4-{3,8-diazabicyclo[3.2.1]octan-3-yl}-7-(8-ethynyl-7-fluoro-3-hydroxynaphthalen-1-yl)-8-fluoropyrido[4,3-d]pyrimidin-2-yl)oxy]ethyl}piperidin-4-yl)methyl]piperidin-4-yl}methyl)piperidin-1-yl]-4-fluoro-1-oxo-2,3-dihydro-1H-isoindol-2-yl}piperidine-2,6-dione] | > 70 | < 5.1 |
| C#Cc1c(F)ccc2cc(O)cc(-c3ncc4c(N5CC6CCC(C5)N6)nc(OCCN5CCC(CC6CCN(c7ccc8c(c7)n(C)c(=O)n8C7CCC(=O)NC7=O)CC6)CC5)nc4c3F)c12 (stereo not drawn) [Compound 89, 3-(5-{4-[(1-{2-[(4-{3,8-diazabicyclo[3.2.1]octan-3-yl}-7-(8-ethynyl-7-fluoro-3-hydroxynaphthalen-1-yl)-8-fluoropyrido[4,3-d]pyrimidin-2-yl)oxy]ethyl}piperidin-4-yl)methyl]piperidin-1-yl}-3-methyl-2-oxo-2,3-dihydro-1H-1,3-benzodiazol-1-yl)piperidine-2,6-dione] | > 70 | < 5.1 |
| C#Cc1c(F)ccc2cc(O)cc(-c3ncc4c(N5CC6CCC(C5)N6)nc(OCCN5CCC(CC6(F)CCN(CC7CCN(c8ccc9c(c8)CN(C8CCC(=O)NC8=O)C9=O)CC7)CC6)CC5)nc4c3F)c12 (stereo not drawn) [Compound 90, 3-{5-[4-({4-[(1-{2-[(4-{3,8-diazabicyclo[3.2.1]octan-3-yl}-7-(8-ethynyl-7-fluoro-3-hydroxynaphthalen-1-yl)-8-fluoropyrido[4,3-d]pyrimidin-2-yl)oxy]ethyl}piperidin-4-yl)methyl]-4-fluoropiperidin-1-yl}methyl)piperidin-1-yl]-1-oxo-2,3-dihydro-1H-isoindol-2-yl}piperidine-2,6-dione] |  | > 1 |
| C#Cc1c(F)ccc2cc(O)cc(-c3ncc4c(N5CC6CCC(C5)N6)nc(OCCN5CCC(F)(CC6CCN(CC7CCN(c8ccc9c(c8)CN(C8CCC(=O)NC8=O)C9=O)CC7)CC6)CC5)nc4c3F)c12 (stereo not drawn) [Compound 91, 3-[5-[4-[[4-[[1-[2-[4-(3,8-diazabicyclo [3.2.1]octan-3-yl)-7-(8-ethynyl-7-fluoro-3-hydroxy-1-naphthyl)-8-fluoro-pyrido[4,3-d]pyrimidin-2-yl]oxyethyl]-4-fluoro-4-piperidyl]methyl]-1-piperidyl]methyl]-1-piperidyl]-1-oxo-isoindolin-2-yl]piperidine-2,6-dione] | > 70 | < 5.1 |
| C#Cc1c(F)ccc2cc(O)cc(-c3ncc4c(N5CC6CCC(C5)N6)nc(OCCN5CCC(CN6CCC7(CC6)CCN(c6ccc8c(c6F)CN(C6CCC(=O)NC6=O)C8=O)CC7)CC5)nc4c3F)c12 (stereo not drawn) [Compound 92, 3-(5-{9-[(1-{2-[(4-{3,8-diazabicyclo[3.2.1]octan-3-yl}-7-(8-ethynyl-7-fluoro-3-hydroxynaphthalen-1-yl)-8-fluoropyrido[4,3-d]pyrimidin-2-yl)oxy]ethyl}piperidin-4-yl)methyl]-3,9-diazaspiro[5.5]undecan-3-yl}-4-fluoro-1-oxo-2,3-dihydro-1H-isoindol-2-yl)piperidine-2,6-dione] | > 70 | < 5.1 |
| C#Cc1c(F)ccc2cc(O)cc(-c3ncc4c(N5CC6CCC(C5)N6)nc(OCCN5CCC(CN6CCC7(CC6)CCN(c6ccc8c(c6)CN(C6CCC(=O)NC6=O)C8=O)CC7)CC5)nc4c3F)c12 (stereo not drawn) [Compound 93, 3-(5-{9-[(1-{2-[(4-{3,8-diazabicyclo[3.2.1]octan-3-yl}-7-(8-ethynyl-7-fluoro-3-hydroxynaphthalen-1-yl)-8-fluoropyrido[4,3-d]pyrimidin-2-yl)oxy]ethyl}piperidin-4-yl)methyl]-3,9-diazaspiro[5.5]undecan-3-yl}-1-oxo-2,3-dihydro-1H-isoindol-2-yl)piperidine-2,6-dione] | > 70 | < 5.1 |
